Reference: patent US20260223852A1, “FUNGICIDAL COMPOSITIONS” (SYNGENTA CROP PROTECTION AG, priority 2023, published 2026)

How the values were obtained:
[1] = system: Puccinia recondita f. sp. tritici; assay: Example B15: Puccinia recondita f. sp. tritici / wheat / leaf disc preventative (brown rust); type: in vivo; conditions: 200 ppm, compared to untreated control
Description: Example B15: Puccinia recondita f. Sp. Tritici/Wheat/Leaf Disc Preventative (Brown Rust)
Wheat leaf segments cv. Kanzler are placed on agar in multiwell plates (24-well format) and sprayed with the formulated test compound diluted in water. The leaf disks are inoculated with a spore suspension of the fungus 1 day after application. The inoculated leaf segments are incubated at 19° C. and 75% rh under a light regime of 12 h light/12 h darkness in a climate cabinet and the activity of a compound is assessed as percent disease control compared to untreated when an appropriate level of disease damage appears in untreated check leaf segments (7-9 days after application).

[2] = system: Botryotinia fuckeliana (Botrytis cinerea); assay: Example B2: Botryotinia fuckeliana (Botrytis cinerea) / liquid culture (gray mould); type: cell-based; conditions: compared to untreated control
Description: Example B2: Botryotinia fuckeliana (Botrytis cinerea)/Liquid Culture (Gray Mould)
(§1) Conidia of the fungus from cryogenic storage are directly mixed into nutrient broth (Vogels broth). After placing a (DMSO) solution of test compound into a microtiter plate (96-well format), the nutrient broth containing the fungal spores is added. The test plates are incubated at 24° C. and the inhibition of growth is determined photometrically 3-4 days after application.

[3] = system: Glomerella lagenarium (Colletotrichum lagenarium); assay: Example B5: Glomerella lagenarium (Colletotrichum lagenarium) / liquid culture (anthracnose); type: cell-based; conditions: Colletotrichum orbiculare, compared to untreated control
Description: Example B5: Glomerella Lagenarium (Colletotrichum Lagenarium)/Liquid Culture (Anthracnose)
as §1, with “(PDB potato dextrose” for “(Vogels”, “measured” for “determined”

[4] = system: Blumeria graminis f. sp. tritici (Erysiphe graminis f. sp. tritici); assay: Example B7: Blumeria graminis f. sp. tritici / wheat / leaf disc preventative (powdery mildew on wheat); type: in vivo; conditions: foliar, compared to untreated control
Description: Example B7: Blumeria Graminis f. Sp. Tritici (Erysiphe graminis f. Sp. Tritici)/Wheat/Leaf Disc Preventative (Powdery Mildew on Wheat)
Wheat leaf segments cv. Kanzler are placed on agar in a multiwell plate (24-well format) and sprayed with the formulated test compound diluted in water. The leaf disks are inoculated by shaking powdery mildew infected plants above the test plates 1 day after application. The inoculated leaf disks are incubated at 20° C. and 60% rh under a light regime of 24 h darkness followed by 12 h light/12 h darkness in a climate chamber and the activity of a compound is assessed as percent disease control compared to untreated when an appropriate level of disease damage appears on untreated check leaf segments (6-8 days after application).

Fusarium culmorum = assay: microbe, parasite or virus in culture; type: cell-based; conditions: read-out: control of Fusarium culmorum
[5] = system: Monographella nivalis (Microdochium nivale); assay: Example B12: Monographella nivalis (Microdochium nivale) / liquid culture (foot rot cereals); type: cell-based; conditions: compared to untreated control
Description: Example B12: Monographella Nivalis (Microdochium Nivale)/Liquid Culture (Foot Rot Cereals)
as §1, with “(PDB potato dextrose” for “(Vogels”, “4-5” for “3-4”

[6] = system: Mycosphaerella arachidis (Cercospora arachidicola); assay: Example B13: Mycosphaerella arachidis (Cercospora arachidicola) / liquid culture (early leaf spot); type: cell-based; conditions: compared to untreated control
Description: Example B13: Mycosphaerella arachidis (Cercospora arachidicola)/Liquid Culture (Early Leaf Spot)
as §1, with “(PDB potato dextrose” for “(Vogels”, “4-5” for “3-4”

[7] = system: Mycosphaerella graminicola (Septoria tritici); assay: Example B19: Mycosphaerella graminicola (Septoria tritici) / liquid culture (Septoria blotch); type: cell-based; conditions: Zymoseptoria tritici, compared to untreated control
Description: Example B19: Mycosphaerella graminicola (Septoria tritici)/Liquid Culture (Septoria Blotch)
as §1, with “(PDB potato dextrose” for “(Vogels”, “4-5” for “3-4”

Pyrenophora teres = assay: Example B17: Pyrenophora teres / barley / leaf disc preventative (net blotch); type: in vivo; conditions: foliar, compared to untreated control
Description: Example B17: Pyrenophora teres/Barley/Leaf Disc Preventative (Net Blotch)
Barley leaf segments cv. Hasso are placed on agar in a multiwell plate (24-well format) and sprayed with the formulated test compound diluted in water. The leaf segments are inoculated with a spore suspension of the fungus 2 days after application. The inoculated leaf segments are incubated at 20° C. and 65% rh under a light regime of 12 h light/12 h darkness in a climate cabinet and the activity of a compound is assessed as disease control compared to untreated when an appropriate level of disease damage appears in untreated check leaf segments (5-7 days after application).

| Structure (SMILES) | control of Puccinia recondita f. sp. tritici [1] | inhibition of growth at 20 ppm [2] [%] | inhibition of growth at 20 ppm [3] [%] | pest or weed control at 200 ppm [4] [%] | inhibition of growth at 20 ppm (Fusarium culmorum) [%] | inhibition of growth at 20 ppm [5] [%] | inhibition of growth at 20 ppm [6] [%] | inhibition of growth at 20 ppm [7] [%] | pest or weed control at 200 ppm (Pyrenophora teres) [%] |
| --- | --- | --- | --- | --- | --- | --- | --- | --- | --- |
| Cn1cc(C(C)(CNC(=O)c2cc(-c3ccc(F)cc3F)on2)c2cccc(Cl)n2)cn1 (centres unmarked) [X.01, N-[2-(6-chloro-2-pyridyl)-2-(1-methylpyrazol-4-yl)propyl]-5-(2,4-difluorophenyl)isoxazole-3-carboxamide] | at least 80% |  |  |  |  |  |  |  |  |
| Cn1cc(C(C)(CNC(=O)c2cc(-c3ncc(F)cc3F)on2)c2cccc(Cl)n2)cn1 (centres unmarked) [X.11, N-[2-(6-chloro-2-pyridyl)-2-(1-methylpyrazol-4-yl)propyl]-5-(3,5-difluoro-2-pyridyl)isoxazole-3-carboxamide] |  | ≥ 80 | ≥ 80 | ≥ 80 | ≥ 80 | ≥ 80 | ≥ 80 | ≥ 80 |  |
| Cn1cc(C(C)(CNC(=O)c2nnc(-c3ncc(F)cc3F)s2)c2cccc(C#N)n2)cn1 (centres unmarked) [X.14, N-[2-(6-cyano-2-pyridyl)-2-(1-methylpyrazol-4-yl)propyl]-5-(3,5-difluoro-2-pyridyl)-1,3,4-thiadiazole-2-carboxamide] |  | ≥ 80 | ≥ 80 | ≥ 80 |  |  |  | ≥ 80 | ≥ 80 |
| Cn1cc(C(C)(CNC(=O)c2nnc(-c3ncc(F)cc3F)s2)c2cccc(Cl)n2)cn1 (centres unmarked) [X.15, N-[2-(6-chloro-2-pyridyl)-2-(1-methylpyrazol-4-yl)propyl]-5-(3,5-difluoro-2-pyridyl)-1,3,4-thiadiazole-2-carboxamide] |  | ≥ 80 | ≥ 80 | ≥ 80 | ≥ 80 | ≥ 80 | ≥ 80 | ≥ 80 | ≥ 80 |
| Cn1cc(C(C)(CNC(=O)c2nnc(-c3ccc(F)nc3F)s2)c2cccc(Cl)n2)cn1 (centres unmarked) [X.16, N-[2-(6-chloro-2-pyridyl)-2-(1-methylpyrazol-4-yl)propyl]-5-(2,6-difluoro-3-pyridyl)-1,3,4-thiadiazole-2-carboxamide] |  | ≥ 80 | ≥ 80 |  |  | ≥ 80 | ≥ 80 | ≥ 80 |  |
